# According to patent US7572785B2, “Substituted imidazoles as cannabinoid receptor modulators” (Merck & Co., Inc., priority 2001, dated 2009):
smiles,measurement,value
Cn1c(C(=O)NC2CCCCC2)nc(-c2ccc(Cl)cc2Cl)c1-c1ccc(Cl)cc1,melting point,165 °C
